Results taken from patent US8338414B2, “Immunosuppressive agent and anti-tumor agent comprising heterocyclic compound as active ingredient” (Zenyaku Kogyo KabushikiKaisha, priority 2005, dated 2012).
Where two headings read alike, the source gives them in different places.

What was measured:
[1] = test system: allogeneic mixed lymphocyte reaction; assay: Allogeneic mixed lymphocyte reaction; assay type: cell-based, mouse; details: C57BL/6N spleen stimulator cells, BALB/c lymph node responder cells, 86 hours, BrdU
Experimental: Spleen cells prepared from C57BL/6N female mice (8-10 weeks old, purchased from Charles River Laboratories Japan Inc.) and peripheral lymph node mononuclear cells prepared from BALB/c female mice (8-10 weeks old, purchased from Charles River Laboratories Japan Inc.) were used as stimulator cells and responder cells, respectively. The respective cells were suspended in RPMI 1640 medium (containing 10% fetal bovine serum, 100 units/mL penicillin, and 0.1 mg/mL streptomycin) (with 2×10^6 cells/mL).

[2] = test system: U 937 cells; assay: Proliferation inhibitory activity on hematologic neoplasm cells, U937; assay type: cell-based; details: 3 days, Alamar Blue
Experimental: (§1) Daudi cells (5×10^5 cells/mL), Jurkat cells (5×10^5 cells/mL), THP-1 cells (5×10^5 cells/mL), U 937 cells (5×10^5 cells/mL), and HL 60 cells (5×10^5 cells/mL) suspended in RPMI 1640 medium (containing 10% fetal bovine serum, 10 mM HEPES, 1 mM pyruvic acid, 4.5 g/L glucose, 100 units/mL penicillin, and 0.1 mg/mL streptomycin) were seeded in 96 well plates at a capacity of 0.135 mL per well. Serial dilutions of test substances were added to respective wells at 15 μL/well, and incubated under conditions of carbon dioxide 5% at 37° C. for 3 days. Thereafter, Alamar Blue solution was added at 50 μL, and after incubation for one day, the fluorescence intensity at 590 nm using an excitation wavelength of 530 nm was determined by Cytoflour 4000 (Applied Biosystems).

[3] = test system: human peripheral blood mononuclear cells; assay: Proliferation inhibition assay for human peripheral blood mononuclear cells; assay type: cell-based; details: PBMC, anti-CD3 and anti-CD28 antibody, 3 days, Alamar Blue
Experimental: 4 mL of blood collected from healthy subjects was placed on 3 mL of MonoPoly Resolving Medium, and after centrifugation, the mononuclear cell (PBMC) fraction was collected. After washing with saline, PBMC (1×10^5 cells/mL) was suspended in RPMI 1640 medium (containing 10% fetal bovine serum, 10 mM HEPES, 1 mM pyruvic acid, and 4.5 g/L glucose). Next, after having added an anti-CD28 antibody (1 μg/mL) to the suspension, they were seeded on an anti-human CD3 T cell activation plate (BD Bioscience) at a capacity of 0.135 mL per well. Then, serial dilutions of test substances were added to respective wells, and incubated under conditions of carbon dioxide 5% at a temperature 37° C. After 3 days, Alamar Blue solution was added at 50 μL per well, and after incubation for one day, a fluorescence intensity at 590 nm using an excitation wavelength of 530 nm was determined by Cytoflour 4000 (Applied Biosystems).

[4] = test system: THP-1 cells; assay: Proliferation inhibitory activity on hematologic neoplasm cells, THP-1; assay type: cell-based; details: 3 days, Alamar Blue
Experimental: as §1

[5] = test system: Jurkat cells; assay: Proliferation inhibitory activity on hematologic neoplasm cells, Jurkat; assay type: cell-based; details: 3 days, Alamar Blue
Experimental: as §1

[6] = test system: Daudi cells; assay: Proliferation inhibitory activity on hematologic neoplasm cells, Daudi; assay type: cell-based; details: 3 days, Alamar Blue
Experimental: as §1

[7] = test system: HL 60 cells; assay: Proliferation inhibitory activity on hematologic neoplasm cells, HL60; assay type: cell-based; details: 3 days, Alamar Blue
Experimental: as §1

[8] = test system: Rabbit synoviocytes HIG-82; assay: Inhibition assay for proliferation of rabbit synoviocyte; assay type: cell-based; details: HIG-82, 3 days, Alamar Blue
Experimental: Rabbit synoviocytes HIG-82 suspended in HAM medium (containing 10% fetal bovine serum, 25 mM HEPES, and 0.1 mg/mL kanamycin) (with 4×10^4 cells/mL) were seeded in wells of a 96 well plate at 0.135 mL per well. Then, 15 μL of each of serial dilutions of test substances was added to a respective well, and incubated under conditions of carbon dioxide 5% at a temperature 37° C. Alamar Blue solution was added at 50 μL per well on day 0 and day 3, and incubated for one day, and thereafter fluorescence intensity at 590 nm using an excitation wavelength of 530 nm was determined by Cytoflour 4000 (Applied Biosystems).

[9] = test system: mouse spleen cells; assay: Proliferation inhibition assay for mouse spleen cells; assay type: cell-based; details: 3 days, Alamar Blue
Experimental: Spleen cells (2×10^6 cells/mL) prepared from C57BL/6N female mice (8 weeks old, purchased from Charles River Laboratories Japan Inc.) were suspended in RPMI 1640 medium (containing 10% fetal bovine serum, 10 mM HEPES, 1 mM pyruvic acid, 4.5 g/L glucose, 100 units/mL penicillin, and 0.1 mg/mL streptomycin), and seeded in wells of a 96 well plate at 0.225 mL per well. Serial dilutions of test substances were added to respective wells, and then concanavalin A (Con A, 3 μg/mL), lipopolysaccharide (LPS, 100 μg/mL), or an anti-mouse IgM antibody (100 μg/mL) were added. Thereafter, they were incubated under conditions of carbon dioxide 5% at a temperature 37° C. for 3 days. Next, Alamar Blue solution was added at 50 μL per 150 μL, and after having cultured for one day, the fluorescence intensity at 590 nm using an excitation wavelength of 530 nm was determined by Cytoflour 4000 (Applied Biosystems).

[10] = test system: fulminant hepatitis; assay: Fulminant hepatitis model (galactosamine and LPS); assay type: in vivo, mouse; details: BALB/c mice, galactosamine 800 mg/kg and LPS 110 μg/kg i.p.
Experimental: BALB/c male mice (7 weeks old, purchased from Charles River Laboratories Japan Inc.) were used in the experiment. After having orally administered the test substances suspended in 5% HPC, galactosamine (800 mg/kg) and LPS (110 μg/kg) were intraperitoneally administered. Then, survival rates at 72 hours after administration were obtained.

[11] = 72 h, LPS 100 μg/mL, read-out: Inhibition of LPS response
[12] = 72 h, concanavalin A 3 μg/mL, read-out: Inhibition of Con A response
[13] = 72 h, anti-mouse IgM antibody 100 μg/mL, read-out: Inhibition of Anti-IgM antibody response

Compound | IC50 ([1]; Mus musculus, Lymphocyte) [nM] | IC50 ([2]; Homo sapiens, U-937, 72 h) [nM] | IC50 ([4]; Homo sapiens, THP-1, 72 h) [nM] | melting point | IC50 ([5]; Homo sapiens, Jurkat, 72 h) [nM] | IC50 ([6]; Homo sapiens, Daudi, 72 h) [nM] | IC50 ([7]; Homo sapiens, HL-60, 72 h) [nM] | IC50 ([3]; Homo sapiens, 72 h) [nM] | IC50 [9, 11] [nM] | IC50 [9, 12] [nM] | IC50 ([8]; Oryctolagus cuniculus, 72 h) [nM] | IC50 [9, 13] [nM] | also measured
2-(2-Difluoromethyl-4-hydroxybenzimidazol-1-yl)-4-morpholino-6-(2,6-dimethylmorpholino)pyrimidine [Compound 11] | – | – | – | – | – | – | – | – | – | – | – | – | IC50 [1]: 1430 nM; IC50 [2]: > 10000 nM; IC50 [3]: > 10000 nM; IC50 [4]: > 10000 nM; IC50 [5]: > 10000 nM; IC50 [6]: 2750 nM; IC50 [7]: > 10000 nM; IC50 [8]: > 10000 nM
OCc1nc2ccccc2n1-c1nc(N2CCOCC2)nc(N2CCOCC2)n1 [Compound 3, 4,6-Dimorpholino-2-(2-hydroxymethylbenzimidazol-1-yl)-1,3,5-triazine] | 600 | 4140 | 135 | 208 to 210 °C (dec.) | 3270 | 379 | 3160 | 1130 | 100 to 10000 | 100 to 10000 | 1780 | – | –
Oc1ccc2c(c1)nc(C(F)F)n2-c1nc(N2CCOCC2)nc(N2CCOCC2)n1 [Compound 12, 2-(2-Difluoromethyl-5-hydroxybenzimidazol-1-yl)-4,6-dimorpholino-1,3,5-triazine] | – | – | – | 272 to 274 °C | – | – | – | – | 1 to 100 | 1 to 100 | – | 1 to 100 | –
CC1(C)CN(c2nc(N3CCOCC3)nc(-n3c(C(F)F)nc4ccc(N)cc43)n2)CCO1 [Compound 13, 2-(6-Amino-2-difluoromethylbenzimidazol-1-yl)-4-(2,2-dimethylmorpholino)-6-morpholino-1,3,5-triazine] | – | – | – | 226 to 227 °C (dec.) | – | – | – | – | 1 to 100 | 1 to 100 | – | 1 to 100 | –
Oc1cccc2c1nc(C(F)F)n2-c1nc(N2CCOCC2)nc(N2CCOCC2)n1 [Compound 15, 2-(2-Difluoromethyl-4-hydroxybenzimidazol-1-yl)-4,6-dimorpholino-1,3,5-triazine] | 42.1 | 217 | 45.4 | – | 116 | 4.92 | 35.8 | 2.91 | – | – | 85.6 | – | Survival Rate after 72 Hours ([10]; 50 mg/kg oral): 17%; Survival Rate after 72 Hours ([10]; 100 mg/kg oral): 0%
Oc1cccc2c1nc(C(F)F)n2-c1nc(N2CCOCC2)cc(N2CCOCC2)n1 [Compound 18, 2-(2-Difluoromethyl-4-hydroxybenzimidazol-1-yl)-4,6-dimorpholinopyrimidine] | – | – | – | – | – | – | – | – | – | – | – | – | Survival Rate after 72 Hours ([10]; 50 mg/kg oral): 50%; Survival Rate after 72 Hours ([10]; 100 mg/kg oral): 80%
COc1ccc2c(c1)nc(C(F)F)n2-c1nc(N2CCOCC2)nc(N2CCOCC2)n1 [Compound 23, 2-(2-Difluoromethyl-5-methoxybenzimidazol-1-yl)-4,6-dimorpholino-1,3,5-triazine] | 258 | 345 | 68.6 | – | 229 | 13.2 | 139 | 19.2 | – | – | 121 | – | –
ON1CCN(c2nc(N3CCOCC3)nc(-n3c(C(F)F)nc4ccccc43)n2)CC1 [Compound 26, 2-(2-Difluoromethylbenzimidazol-1-yl)-4-(4-hydroxypiperizin-1-yl)-6-morpholino-1,3,5-triazine] | – | – | – | – | – | – | – | – | – | – | – | – | IC50 [4]: 865 nM; IC50 [5]: 3120 nM; IC50 [6]: 426 nM; IC50 ([9]; LPS 100 μg/mL, read-out: Inhibition of LPS response): 1 to 100 nM; IC50 ([9]; concanavalin A 3 μg/mL, read-out: Inhibition of Con A response): ≤ 1 nM; IC50 [8]: 2380 nM

The next lines start with results.

IC50 ([1]; Mus musculus, Lymphocyte) [nM] | IC50 ([2]; Homo sapiens, U-937, 72 h) [nM] | IC50 ([4]; Homo sapiens, THP-1, 72 h) [nM] | melting point | IC50 ([5]; Homo sapiens, Jurkat, 72 h) [nM] | IC50 ([6]; Homo sapiens, Daudi, 72 h) [nM] | IC50 ([7]; Homo sapiens, HL-60, 72 h) [nM] | Compound | IC50 ([3]; Homo sapiens, 72 h) [nM] | IC50 [9, 11] [nM] | IC50 [9, 12] [nM] | IC50 ([8]; Oryctolagus cuniculus, 72 h) [nM] | IC50 [9, 13] [nM] | also measured
670 | > 10000 | 535 | 218 to 220 °C (dec.) | 5020 | 827 | > 10000 | Cc1nc2ccccc2n1-c1nc(N2CCOCC2)nc(N2CCOCC2)n1 [Compound 1, 2-(2-Methylbenzimidazol-1-yl)-4,6-dimorpholino-1,3,5-triazine] | 1780 | 100 to 10000 | 100 to 10000 | 4850 | – | –
344 | > 10000 | 794 | 259 to 260 °C | > 10000 | 160 | 1790 | Cc1cccc2c1nc(C(F)F)n2-c1nc(N2CCOCC2)nc(N2CCOCC2)n1 [Compound 10, 2-(2-Difluoromethyl-4-methylbenzimidazol-1-yl)-4,6-dimorpholino-1,3,5-triazine] | 825 | 10000 to 100000 | 100 to 10000 | 6510 | 100 to 10000 | –
227 | 1110 | 286 | 214 to 216 °C (dec.) | 1340 | 65.5 | 396 | Nc1cccc2c1nc(C(F)F)n2-c1nc(N2CCOCC2)nc(N2CCOCC2)n1 [Compound 14, 2-(4-Amino-2-difluoromethylbenzimidazol-1-yl)-4,6-dimorpholino-1,3,5-triazine] | 92.3 | – | – | 484 | – | –
460 | 604 | 112 | > 250 °C | 357 | 10.3 | 67.2 | Oc1ccc2nc(C(F)F)n(-c3nc(N4CCOCC4)nc(N4CCOCC4)n3)c2c1 [Compound 16, 2-(2-Difluoromethyl-6-hydroxybenzimidazol-1-yl)-4,6-dimorpholino-1,3,5-triazine] | 12.3 | – | – | 163 | – | –
– | – | – | 157 to 160 °C | – | – | – | CC1CN(c2cc(N3CC(C)OC(C)C3)nc(-n3c(C(F)F)nc4cc(N)ccc43)n2)CC(C)O1 (stereo not drawn) [Compound 17, 2-(5-Amino-2-difluoromethylbenzimidazol-1-yl)-4,6-di(2,6-dimethylmorpholino)pyrimidine] | – | 10000 to 100000 | 100 to 10000 | – | 100 to 10000 | –
– | – | – | 185 to 187 °C | – | – | – | CC1(C)CN(c2cc(N3CCOCC3)nc(-n3c(C(F)F)nc4c(O)cccc43)n2)CCO1 [Compound 21, 2-(2-Difluoromethyl-4-hydroxybenzimidazol-1-yl)-4-(2,2-dimethylmorpholino)-6-morpholinopyrimidine] | – | ≤ 1 | ≤ 1 | – | ≤ 1 | –
